These results are taken from patent US20150231109A1, “COMBINATIONS (CATECHINS AND METHOTREXATE) FOR USE IN THE TREATMENT OF MELANOMAS” (UNIVERSIDAD DE MURCIA, priority 2012, published 2015).

Each structure is given as a SMILES string.

The subject of one data set is MCF7. In words: HPLC/MS/MS intracellular levels of MTX in MCF7. The class given is cell-based. Particulars: MCF7, same MTX treatment (24 h, 1 μM).
Data set [1] is described as follows: Pharmacokinetic studies in mice plasma. Type of data set: in vivo. The note with it: mouse, ip, male C57BL/6 mice, intra-peritoneal MTX 50 mg/kg alone or with TMECG 50 mg/kg. On the procedure:
Pharmacokinetic studies were performed in male C57BL/6 mice after intra-peritoneal injection of MTX (50 mg/kg) and/or TMECG (50 mg/kg). Animals were anesthetized with CO2, and whole blood samples (˜0.5 mL) were collected via cardiac puncture. Samples for drug quantification were collected from different animals (in triplicate) at 5, 15, and 30 min and at 1, 2, 4, and 6 hr post-dose. Whole blood samples were transferred to lithium heparin blood collection tubes, and then centrifuged at 10,000 rpm for 10 min at 4° C. After plasma deproteinization with 5% trichloroacetic acid (TCA), MTX and TMECG plasma concentrations were calculated by HPLC. Pharmacokinetic parameters were estimated using the WinNonlin software package (WinNonlin Professional version 5.1., Pharsight Corporation, CA). WinNonlin model 200 was used for the non-compartmental analysis of the concentration-time data. The area under the plasma concentration-time curve (AUClast) from time 0 to the last point (tlast) with measurable concentration (Clast) was estimated using a linear trapezoidal approximation (AUClast). The elimination half-life (t1/2) was calculated as ln2/kel, where kel (elimination rate constant) was estimated using least squares regression analysis of the concentration-time data obtained during the terminal log-linear elimination phase. The maximum plasma concentrations (Cmax) were estimated directly from the data, with tmax being defined as the time of the first occurrence of Cmax.

For another data set, the system named is SK-MEL-28 cells. The data set can be described thus: Matrigel Boyden chamber invasion assay, SK-MEL-28. Type of data set: cell-based, human. The note with it: SK-MEL-28, MTX 48 h, 1 μM. How it is done: FIGS. 1A-J. Methotrexate up-regulates the expression of MITF. A, The MITF rheostat, and the two-step strategy for melanoma therapy: Drug A induces MITF, driving cells to be sensitive to Drug B. B, MTX (1 μM) increases MITF mRNA determined using quantitative and conventional RT-PCR from indicated cell lines. […] C, MTX (1 μM) induces MITF protein assayed by western blotting (WB) (*P<0.05). D, Immunofluorescence of control or MTX-treated (3 h) 501 MEL cells using anti-MITF and DAPI. E, Matrigel assay of control and MTX-treated SKMEL-28 cells (48 h, 1 μM) and IGR39 (72 h, 1 μM) cells. […] Scale bar refers to all panels. F, Chromatin immunoprecipitation on TYR and Pmel17 genes of control and MTX-treated (4 h, 1 μM) SK-MEL-28 cells with qRT-PCR after immunoprecipitation with IgG, or MITF and HDAC3 antibodies. Error bars indicate standard deviations of triplicates; experiment reproduced four times with similar results. G, Scanning electron micrographs of control and MTX-treated (1 μM, 24 h) SK-MEL-28 cells. H, Semiquantitative RT PCR of TYR, TYRP1, Pmel17, MART1, and Rab27a mRNA. […]
Invasion assays were performed using a cell invasion assay kit (BD Bioscience). […] The invading cells were stained and quantified measuring the surface occupied by stained cells with a cell counter plug-in of the Image J software.

The next data set relates to MITF. The data set can be described thus: MITF mRNA and protein expression (RT-PCR, western blot, immunofluorescence) in melanoma cell lines. The class given is cell-based. The note with it: MTX 1 μM; mouse (B16/F10) and human (SK-MEL-28, G361, A375) cell lines.

Description for MITF: mRNA extraction, cDNA synthesis, and conventional and qRT-PCR were performed under standard conditions. Primers were designed using Primer Express version 2.0 software (Applied Biosystems, Foster City, Calif.) and synthesized by Invitrogen (Barcelona, Spain).
Whole cell lysates were collected by adding SDS sample buffer. After extensive sonication, samples were boiled for 10 min and subjected to SDS-PAGE. Proteins were then transferred to nitrocellulose membranes and analyzed by immunoblotting (ECL Plus, GE Healthcare, Barcelona, Spain).
Confocal microscopy was carried out using a Leica TCS 4D confocal microscope (Wetzlar, Germany). For indirect immuno-fluorescence studies, preparation of the cells on glass slides were fixed with cold acetone for 5 min, and washed with PBS. The cells were incubated with 3% bovine serum albumin (BSA) for 20 min and then 2 h at room temperature with primary antibodies (diluted 1:200 in PBS containing 1% BSA) as described in each experiment. The cells were washed three times in PBS and incubated for 1 h at room temperature with Alexa Fluor Dyes (Invitrogen) as secondary antibodies. After 3 washes with PBS, the cells were incubated with 0.01% 4′-6-diamidino-2-phenylidene (DAPI; Sigma) in water for 5 min. […]

Consider `CN(Cc1cnc2nc(N)nc(N)c2n1)c1ccc(C(=O)N[C@@H](CCC(=O)O)C(=O)O)cc1` [MTX, methotrexate], for which, in the data set with MCF7, the “intracellular levels of MTX” value amounted to 1.3 ± 0.4 pmol/106 cells. Also, the area under the curve (AUC) in data set [1] (read-out: MTX parameters AUC) was found to be 32000 ng·h/mL. The peak concentration (Cmax) in data set [1] (read-out: MTX parameters Cmax) is 24600 ng/mL. Further, the Tmax in data set [1] (read-out: MTX parameters Tmax) is 0.5 h. In addition, the half-life in data set [1] (read-out: MTX parameters t1/2 (converted)) is 1.77 h. The invasiveness entry in the data set on SK-MEL-28 cells is “eliminated invasiveness”. Further, in the data set on MITF, the “MITF mRNA and protein” value is reported as “increased”.
